Source: patent US9113629B2, “4-amino-6-(4-substituted-phenyl)-picolinates and 6-amino-2-(4-substituted-phenyl)-pyrimidine-4-carboxylates and their use as herbicides” (DOW AGROSCIENCES LLC, priority 2013, dated 2015)
Like-named read-outs stand apart in the source and are kept apart here.

Tests used:
Assay in all cases: Post-emergent Test III, herbicidal activity in wheat and barley
Assay type in all cases: in vivo
[1] = test system: SASKR: Russian thistle (Salsola iberica); conditions: for pest or weed control at 35 g/ha / pest or weed control at 70 g/ha: Salsola tragus, post-emergence, 504 h; for pest or weed control at 35 g/ha: 35 g ai/ha; for pest or weed control at 70 g/ha: 70 g ai/ha; for GR50 SASKR: dose for 50 percent growth reduction; for GR50 SASKR / GR80 SASKR: probit analysis; for GR80 SASKR: dose for 80 percent growth reduction
In short: (§1)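 GR20, GR50, GR80 and GR90 come from probit analysis of visual injury scores (0 = none, 100 = complete kill) taken 21 d after treatment. Foliar application was by track sprayer delivering 187 L/ha at five rates, from high down to 1/16×, onto greenhouse plants at the 2–3 leaf stage, with solvent-blank controls.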

[2] = test system: KCHSC: kochia (Kochia scoparia); conditions: for pest or weed control at 35 g/ha / pest or weed control at 70 g/ha: Bassia scoparia, post-emergence, 504 h; for pest or weed control at 35 g/ha: 35 g ai/ha; for pest or weed control at 70 g/ha: 70 g ai/ha; for GR50 KCHSC: dose for 50 percent growth reduction; for GR50 KCHSC / GR80 KCHSC: probit analysis; for GR80 KCHSC: dose for 80 percent growth reduction
In short: as §1

[3] = test system: HORSS: barley, including spring and winter (Hordeum vulgare); conditions: for pest or weed control at 35 g/ha / pest or weed control at 70 g/ha: Hordeum vulgare, post-emergence, 504 h; for pest or weed control at 35 g/ha: 35 g ai/ha; for pest or weed control at 70 g/ha: 70 g ai/ha; for GR20 HORSS: probit analysis
In short: as §1

[4] = test system: VERPE: bird's-eye speedwell (veronica persica); conditions: for GR50 VERPE: dose for 50 percent growth reduction; for GR50 VERPE / GR80 VERPE: probit analysis; for GR80 VERPE: dose for 80 percent growth reduction; for pest or weed control at 35 g/ha / pest or weed control at 70 g/ha: Veronica persica, post-emergence, 504 h; for pest or weed control at 35 g/ha: 35 g ai/ha; for pest or weed control at 70 g/ha: 70 g ai/ha
In short: as §1

[5] = test system: VIOSS: wild pansy (Viola tricolor), field violet (Viola arvensis); conditions: for GR50 VIOSS: dose for 50 percent growth reduction; for GR50 VIOSS / GR80 VIOSS: probit analysis; for GR80 VIOSS: dose for 80 percent growth reduction; for pest or weed control at 35 g/ha / pest or weed control at 70 g/ha: Viola tricolor, post-emergence, 504 h; for pest or weed control at 35 g/ha: 35 g ai/ha; for pest or weed control at 70 g/ha: 70 g ai/ha
In short: as §1

[6] = test system: MATSS: scented mayweed (Matricaria chamomilla), pineappleweed (Matricaria matricarioides); conditions: for pest or weed control at 35 g/ha / pest or weed control at 70 g/ha: Matricaria chamomilla, post-emergence, 504 h; for pest or weed control at 35 g/ha: 35 g ai/ha; for pest or weed control at 70 g/ha: 70 g ai/ha; for GR50 MATSS: dose for 50 percent growth reduction; for GR50 MATSS / GR80 MATSS: probit analysis; for GR80 MATSS: dose for 80 percent growth reduction
In short: as §1

[7] = test system: TRZSS: wheat, including spring and winter (Triticum aestivum); conditions: for GR20 TRZSS: probit analysis; for pest or weed control at 35 g/ha / pest or weed control at 70 g/ha: Triticum aestivum, post-emergence, 504 h; for pest or weed control at 35 g/ha: 35 g ai/ha; for pest or weed control at 70 g/ha: 70 g ai/ha
In short: as §1

[8] = Table 8, post-emergent, 21 d, read-out: Visual Growth Reduction (%) 21 Days After Application SASKR
[9] = Table 8, post-emergent, 21 d, read-out: Visual Growth Reduction (%) 21 Days After Application KCHSC
[10] = Table 8, post-emergent, 21 d, read-out: Visual Growth Reduction (%) 21 Days After Application HORSS
[11] = Table 8, dose for 20 percent growth reduction, 21 d
[12] = Table 8, post-emergent, 21 d, read-out: Visual Growth Reduction (%) 21 Days After Application VERPE
[13] = Table 8, post-emergent, 21 d, read-out: Visual Growth Reduction (%) 21 Days After Application VIOSS
[14] = Table 8, post-emergent, 21 d, read-out: Visual Growth Reduction (%) 21 Days After Application MATSS
[15] = Table 8, post-emergent, 21 d, read-out: Visual Growth Reduction (%) 21 Days After Application TRZSS
[16] = 21 days after application, read-out: Visual Gorowth Reduction (%) 21 days After Application SASKR
[17] = 21 days after application, read-out: Visual Gorowth Reduction (%) 21 days After Application KCHSC
[18] = 21 days after application, read-out: Visual Gorowth Reduction (%) 21 days After Application HORSS
[19] = dose for 20 percent growth reduction (crop), 21 days after application
[20] = 21 days after application, read-out: Visual Gorowth Reduction (%) 21 days After Application VERPE
[21] = 21 days after application, read-out: Visual Gorowth Reduction (%) 21 days After Application VIOSS
[22] = 21 days after application, read-out: Visual Gorowth Reduction (%) 21 days After Application MATSS
[23] = 21 days after application, read-out: Visual Gorowth Reduction (%) 21 days After Application TRZSS

Q: How did the pest or weed control at 35 g/ha [1, 8] turn out when `COc1c(N)nc(-c2ccc(Br)c(F)c2)nc1C(=O)O` [Compound 113, 6-Amino-2-(4-bromo-3-fluorophenyl)-5-methoxypyrimidine-4-carboxylic acid] was run?
A: 75 to 84%

Q: What about the pest or weed control at 70 g/ha [1, 8] of the same molecule?
A: 85 to 94%

Q: What about the “GR50 SASKR” value ([1]; Table 8, 21 d) of the same molecule?
A: 5 g ai/ha

Q: And the “GR80 SASKR” value ([1]; Table 8, 21 d)?
A: 36 g ai/ha

Q: And the pest or weed control at 35 g/ha [2, 9]?
A: 95 to 100%

Q: And the pest or weed control at 70 g/ha [2, 9]?
A: 95 to 100%

Q: What about the “GR50 KCHSC” value ([2]; Table 8, 21 d) of the same molecule?
A: 3 g ai/ha

Q: And the “GR80 KCHSC” value ([2]; Table 8, 21 d)?
A: 10 g ai/ha

Q: And the pest or weed control at 35 g/ha [3, 10]?
A: 85 to 94%

Q: What about the pest or weed control at 70 g/ha [3, 10] of the same molecule?
A: 95 to 100%

Q: What about the “GR20 HORSS” value [3, 11] of the same molecule?
A: 1 g ai/ha

Q: What about the “GR50 VERPE” value ([4]; Table 8, 21 d) of the same molecule?
A: 3 g ai/ha

Q: What about the “GR80 VERPE” value ([4]; Table 8, 21 d) of the same molecule?
A: 18 g ai/ha

Q: And the pest or weed control at 35 g/ha [4, 12]?
A: 85 to 94%

Q: And the pest or weed control at 70 g/ha [4, 12]?
A: 85 to 94%

Q: And the “GR50 VIOSS” value ([5]; Table 8, 21 d)?
A: 4 g ai/ha

Q: And the “GR80 VIOSS” value ([5]; Table 8, 21 d)?
A: 11 g ai/ha

Q: And the pest or weed control at 35 g/ha [5, 13]?
A: 95 to 100%

Q: What about the pest or weed control at 70 g/ha [5, 13] of the same molecule?
A: 95 to 100%

Q: And the pest or weed control at 35 g/ha [6, 14]?
A: 85 to 94%

Q: What about the pest or weed control at 70 g/ha [6, 14] of the same molecule?
A: 95 to 100%

Q: What about the “GR50 MATSS” value ([6]; Table 8, 21 d) of the same molecule?
A: 4 g ai/ha

Q: What about the “GR80 MATSS” value ([6]; Table 8, 21 d) of the same molecule?
A: 15 g ai/ha

Q: What about the “GR20 TRZSS” value [7, 11] of the same molecule?
A: 1 g ai/ha

Q: And the pest or weed control at 35 g/ha [7, 15]?
A: 85 to 94%

Q: What about the pest or weed control at 70 g/ha [7, 15] of the same molecule?
A: 85 to 94%

Q: `COC(=O)c1nc(-c2ccc(Br)c(F)c2F)nc(N)c1OC` [Compound 122, methyl 6-amino-2-(4-bromo-2,3-difluorophenyl)-5-methoxypyrimidine-4-carboxylate] was tested. Which pest or weed control at 35 g/ha [1, 16] did it give?
A: 95 to 100%

Q: What about the pest or weed control at 70 g/ha [1, 16] of the same molecule?
A: 95 to 100%

Q: And the “GR50 SASKR” value ([1]; 21 days after application)?
A: <17.5 g ai/ha

Q: And the “GR80 SASKR” value ([1]; 21 days after application)?
A: <17.5 g ai/ha

Q: And the pest or weed control at 35 g/ha [2, 17]?
A: 85 to 94%

Q: And the pest or weed control at 70 g/ha [2, 17]?
A: 95 to 100%

Q: And the “GR50 KCHSC” value ([2]; 21 days after application)?
A: 5 g ai/ha

Q: And the “GR80 KCHSC” value ([2]; 21 days after application)?
A: 14 g ai/ha

Q: And the pest or weed control at 35 g/ha [3, 18]?
A: 60 to 74%

Q: And the pest or weed control at 70 g/ha [3, 18]?
A: 85 to 94%

Q: And the “GR20 HORSS” value [3, 19]?
A: 3 g ai/ha

Q: What about the pest or weed control at 35 g/ha [4, 20] of the same molecule?
A: 95 to 100%

Q: What about the pest or weed control at 70 g/ha [4, 20] of the same molecule?
A: 95 to 100%

Q: What about the “GR50 VERPE” value ([4]; 21 days after application) of the same molecule?
A: 1 g ai/ha

Q: What about the “GR80 VERPE” value ([4]; 21 days after application) of the same molecule?
A: 2 g ai/ha

Q: And the pest or weed control at 35 g/ha [5, 21]?
A: 95 to 100%

Q: What about the pest or weed control at 70 g/ha [5, 21] of the same molecule?
A: 95 to 100%

Q: What about the “GR50 VIOSS” value ([5]; 21 days after application) of the same molecule?
A: 10 g ai/ha

Q: And the “GR80 VIOSS” value ([5]; 21 days after application)?
A: 21 g ai/ha

Q: What about the pest or weed control at 35 g/ha [6, 22] of the same molecule?
A: 0 to 29%

Q: And the pest or weed control at 70 g/ha [6, 22]?
A: 30 to 44%

Q: What about the “GR50 MATSS” value ([6]; 21 days after application) of the same molecule?
A: >140 g ai/ha

Q: And the “GR80 MATSS” value ([6]; 21 days after application)?
A: >140 g ai/ha

Q: And the pest or weed control at 35 g/ha [7, 23]?
A: 75 to 84%

Q: And the pest or weed control at 70 g/ha [7, 23]?
A: 85 to 94%

Q: And the “GR20 TRZSS” value [7, 19]?
A: 1 g ai/ha

Q: `COC(=O)c1nc(-c2ccc(I)c(F)c2F)cc(N)c1Cl` [Compound 129, Methyl 4-amino-3-chloro-6-(2,3-difluoro-4-iodophenyl)picolinate] was tested. Which pest or weed control at 35 g/ha [1, 16] did it give?
A: 75 to 84%

Q: What about the pest or weed control at 70 g/ha [1, 16] of the same molecule?
A: 85 to 94%

Q: What about the “GR50 SASKR” value ([1]; 21 days after application) of the same molecule?
A: 6 g ai/ha

Q: What about the “GR80 SASKR” value ([1]; 21 days after application) of the same molecule?
A: 41 g ai/ha

Q: And the pest or weed control at 35 g/ha [2, 17]?
A: 85 to 94%

Q: And the pest or weed control at 70 g/ha [2, 17]?
A: 95 to 100%

Q: And the “GR50 KCHSC” value ([2]; 21 days after application)?
A: 7 g ai/ha

Q: And the “GR80 KCHSC” value ([2]; 21 days after application)?
A: 21 g ai/ha

Q: And the pest or weed control at 35 g/ha [3, 18]?
A: 85 to 94%

Q: And the pest or weed control at 70 g/ha [3, 18]?
A: 85 to 94%

Q: And the “GR20 HORSS” value [3, 19]?
A: 1 g ai/ha

Q: And the pest or weed control at 35 g/ha [4, 20]?
A: 30 to 44%

Q: What about the pest or weed control at 70 g/ha [4, 20] of the same molecule?
A: 45 to 59%

Q: What about the “GR50 VERPE” value ([4]; 21 days after application) of the same molecule?
A: 92 g ai/ha

Q: And the “GR80 VERPE” value ([4]; 21 days after application)?
A: >140 g ai/ha

Q: And the pest or weed control at 35 g/ha [5, 21]?
A: 75 to 84%

Q: And the pest or weed control at 70 g/ha [5, 21]?
A: 95 to 100%

Q: What about the “GR50 VIOSS” value ([5]; 21 days after application) of the same molecule?
A: 17 g ai/ha

Q: What about the “GR80 VIOSS” value ([5]; 21 days after application) of the same molecule?
A: 34 g ai/ha

Q: What about the pest or weed control at 35 g/ha [6, 22] of the same molecule?
A: 0 to 29%

Q: And the pest or weed control at 70 g/ha [6, 22]?
A: 30 to 44%

Q: And the “GR50 MATSS” value ([6]; 21 days after application)?
A: 89 g ai/ha

Q: What about the “GR80 MATSS” value ([6]; 21 days after application) of the same molecule?
A: 131 g ai/ha

Q: And the pest or weed control at 35 g/ha [7, 23]?
A: 75 to 84%

Q: And the pest or weed control at 70 g/ha [7, 23]?
A: 85 to 94%

Q: And the “GR20 TRZSS” value [7, 19]?
A: 1 g ai/ha
